# In ChEMBL document CHEMBL3885881, “DrugMatrix”:
# Organism: Rattus norvegicus
# Assay: DrugMatrix - Regimen: Daily Repeat
# Format: toxicity, organism-based, Sprague-Dawley
# Parameters: regimen Daily Repeat, gender Male, age 6-8 weeks
# Conditions: in vivo, po, route oral GAVAGE, […]; for ABSOLUTE BASOPHIL / ABSOLUTE EOSINOPHIL / ABSOLUTE LYMPHOCYTE / ABSOLUTE MONOCYTE / ABSOLUTE SEGMENTED NEUTROPHIL / BASOPHIL / EOSINOPHIL / ERYTHROCYTE COUNT / HEMATOCRIT / HEMOGLOBIN / LEUKOCYTE COUNT / LYMPHOCYTE / MEAN CORPUSCULAR HEMOGLOBIN / MEAN CORPUSCULAR HEMOGLOBIN CONCENTRATION / MEAN CORPUSCULAR VOLUME / MONOCYTE / NEUTROPHIL / NUCLEATED RED BLOOD CELLS / PLATELET COUNT: tissue Blood; for ALANINE AMINOTRANSFERASE / ALBUMIN / ALKALINE PHOSPHATASE / ASPARTATE AMINOTRANSFERASE / BLOOD UREA NITROGEN / CARBON DIOXIDE / CHLORIDE / CHOLESTEROL / CREATINE PHOSPHOKINASE / CREATININE / GLUCOSE / LACTATE DEHYDROGENASE / LIPASE / PHOSPHORUS / POTASSIUM / SODIUM / TOTAL BILIRUBIN / TOTAL PROTEIN / URIC ACID: tissue Plasma
# [1] = 0.05 mg/kg, 120 h, dose level Low, time 5 day
# [2] = 7 mg/kg, 72 h, dose level High, time 3 day
# [3] = 7 mg/kg, 120 h, dose level High, time 5 day
structure (smiles),measurement,setting,value
COCc1c(C(C)C)nc(C(C)C)c(/C=C/[C@@H](O)C[C@@H](O)CC(=O)O)c1-c1ccc(F)cc1 [CERIVASTATIN],ABSOLUTE BASOPHIL,[1],0 CELLS/uL
same,ABSOLUTE EOSINOPHIL,[1],39 CELLS/uL
same,ABSOLUTE LYMPHOCYTE,[1],10187.67 CELLS/uL
same,ABSOLUTE MONOCYTE,[1],164.67 CELLS/uL
same,ABSOLUTE SEGMENTED NEUTROPHIL,[1],875.33 CELLS/uL
same,BASOPHIL,[1],0%
same,EOSINOPHIL,[1],0.33%
same,ERYTHROCYTE COUNT,[1],5.9 x10E6/uL
same,HEMATOCRIT,[1],36.4%
same,HEMOGLOBIN,[1],13.87 G/DL
same,LEUKOCYTE COUNT,[1],11.27 x10E3/uL
same,LYMPHOCYTE,[1],90.33%
same,MEAN CORPUSCULAR HEMOGLOBIN,[1],23.53 pg
same,MEAN CORPUSCULAR HEMOGLOBIN CONCENTRATION,[1],38.1 G/DL
same,MEAN CORPUSCULAR VOLUME,[1],61.73 fL
same,MONOCYTE,[1],1.33%
same,NEUTROPHIL,[1],8%
same,NUCLEATED RED BLOOD CELLS,[1],0 /100WBC
same,PLATELET COUNT,[1],1545 x10E3/uL
same,ALANINE AMINOTRANSFERASE,[1],66.33 u/L
same,ALBUMIN,[1],4.1 G/DL
same,ALKALINE PHOSPHATASE,[1],440.67 u/L
same,ASPARTATE AMINOTRANSFERASE,[1],90 u/L
same,BLOOD UREA NITROGEN,[1],14.67 mg/dL
same,CARBON DIOXIDE,[1],32 mmol/L
same,CHLORIDE,[1],101 MEQ/L
same,CHOLESTEROL,[1],63.67 mg/dL
same,CREATINE PHOSPHOKINASE,[1],453 u/L
same,CREATININE,[1],0.19 mg/dL
same,GLUCOSE,[1],143.33 mg/dL
same,LACTATE DEHYDROGENASE,[1],112.33 u/L
same,LIPASE,[1],11.33 u/L
same,PHOSPHORUS,[1],10.8 mg/dL
same,POTASSIUM,[1],6.11 MEQ/L
same,SODIUM,[1],144.4 MEQ/L
same,TOTAL BILIRUBIN,[1],0.17 mg/dL
same,TOTAL PROTEIN,[1],5.87 G/DL
same,URIC ACID,[1],1.37 mg/dL
same,ABSOLUTE BASOPHIL,[2],0 CELLS/uL
same,ABSOLUTE EOSINOPHIL,[2],0 CELLS/uL
same,ABSOLUTE LYMPHOCYTE,[2],7320 CELLS/uL
same,ABSOLUTE MONOCYTE,[2],110 CELLS/uL
same,ABSOLUTE SEGMENTED NEUTROPHIL,[2],1470 CELLS/uL
same,BASOPHIL,[2],0%
same,EOSINOPHIL,[2],0%
same,ERYTHROCYTE COUNT,[2],6.07 x10E6/uL
same,HEMATOCRIT,[2],37.7%
same,HEMOGLOBIN,[2],14.3 G/DL
same,LEUKOCYTE COUNT,[2],8.9 x10E3/uL
same,LYMPHOCYTE,[2],81.67%
same,MEAN CORPUSCULAR HEMOGLOBIN,[2],23.6 pg
same,MEAN CORPUSCULAR HEMOGLOBIN CONCENTRATION,[2],37.93 G/DL
same,MEAN CORPUSCULAR VOLUME,[2],62.2 fL
same,MONOCYTE,[2],1.33%
same,NEUTROPHIL,[2],17%
same,NUCLEATED RED BLOOD CELLS,[2],0 /100WBC
same,PLATELET COUNT,[2],1276.33 x10E3/uL
same,ALANINE AMINOTRANSFERASE,[2],401.33 u/L
same,ALBUMIN,[2],4.23 G/DL
same,ALKALINE PHOSPHATASE,[2],440.67 u/L
same,ASPARTATE AMINOTRANSFERASE,[2],730.67 u/L
same,BLOOD UREA NITROGEN,[2],14.33 mg/dL
same,CARBON DIOXIDE,[2],34.67 mmol/L
same,CHLORIDE,[2],99.33 MEQ/L
same,CHOLESTEROL,[2],65.33 mg/dL
same,CREATINE PHOSPHOKINASE,[2],536.67 u/L
same,CREATININE,[2],0.21 mg/dL
same,GLUCOSE,[2],138.33 mg/dL
same,LACTATE DEHYDROGENASE,[2],823 u/L
same,LIPASE,[2],11.33 u/L
same,PHOSPHORUS,[2],10.17 mg/dL
same,POTASSIUM,[2],6.19 MEQ/L
same,SODIUM,[2],145.1 MEQ/L
same,TOTAL BILIRUBIN,[2],0.13 mg/dL
same,TOTAL PROTEIN,[2],5.9 G/DL
same,URIC ACID,[2],1.17 mg/dL
same,ABSOLUTE BASOPHIL,[3],0 CELLS/uL
same,ABSOLUTE EOSINOPHIL,[3],0 CELLS/uL
same,ABSOLUTE LYMPHOCYTE,[3],5700.67 CELLS/uL
same,ABSOLUTE MONOCYTE,[3],483.33 CELLS/uL
same,ABSOLUTE SEGMENTED NEUTROPHIL,[3],1949.33 CELLS/uL
same,BASOPHIL,[3],0%
same,EOSINOPHIL,[3],0%
same,ERYTHROCYTE COUNT,[3],6.32 x10E6/uL
same,HEMATOCRIT,[3],41%
same,HEMOGLOBIN,[3],15.23 G/DL
same,LEUKOCYTE COUNT,[3],8.13 x10E3/uL
same,LYMPHOCYTE,[3],68.33%
same,MEAN CORPUSCULAR HEMOGLOBIN,[3],24.1 pg
same,MEAN CORPUSCULAR HEMOGLOBIN CONCENTRATION,[3],37.17 G/DL
same,MEAN CORPUSCULAR VOLUME,[3],64.93 fL
same,MONOCYTE,[3],5.67%
same,NEUTROPHIL,[3],26%
same,NUCLEATED RED BLOOD CELLS,[3],0 /100WBC
same,PLATELET COUNT,[3],1312.67 x10E3/uL
same,ALANINE AMINOTRANSFERASE,[3],247.33 u/L
same,ALBUMIN,[3],3.9 G/DL
same,ALKALINE PHOSPHATASE,[3],548.33 u/L
same,ASPARTATE AMINOTRANSFERASE,[3],624.67 u/L
same,BLOOD UREA NITROGEN,[3],19 mg/dL
same,CARBON DIOXIDE,[3],35.67 mmol/L
same,CHLORIDE,[3],93 MEQ/L
same,CHOLESTEROL,[3],85 mg/dL
same,CREATINE PHOSPHOKINASE,[3],915.67 u/L
same,CREATININE,[3],0.27 mg/dL
same,GLUCOSE,[3],124.33 mg/dL
same,LACTATE DEHYDROGENASE,[3],295 u/L
same,LIPASE,[3],13 u/L
same,PHOSPHORUS,[3],8 mg/dL
same,POTASSIUM,[3],5.51 MEQ/L
same,SODIUM,[3],142.73 MEQ/L
same,TOTAL BILIRUBIN,[3],0.13 mg/dL
same,TOTAL PROTEIN,[3],6.1 G/DL
same,URIC ACID,[3],0.87 mg/dL
